{"source": "patent US6586434B2", "about": "“Method for the preparation of tetrahydrobenzothiepines” (G.D. Searle, LLC, priority 2000, dated 2003)", "experiment": "Water uptake experiments (Dynamic Vapor Sorption, water sorption/desorption isotherms)", "type": "physicochemical", "conditions": "for Desorptoin % Weight Change: reverse stepwise RH decrease; for Sorption % Weight Change: stepwise RH increase", "experimental": "Water sorption experiments are performed on a Dynamic Vapor Sorption (DVS) apparatus (DVS-1000 manufactured by Surface Measurements Systems, Inc.). Experiments are performed at 25° C. by initially drying the material of interest (about 10 mg sample) from 30% relative humidity (RH) (ambient room condition) to about 9% RH in a stepwise fashion (10% RH step) by purging with dry nitrogen until no further weight change was observed. The samples are then exposed to a stepwise (10% RH steps) increase in RH from about 0 to about 90% RH. Each successive step is initiated when the change in weight over time at the relative humidity was less than 0.0003% ((dm/dt)/m0×100, where m is mass in mg, m0 is initial mass, and t is time in minutes). The sample is then taken through the reverse of the stepwise % RH increase. The data are collected on a computer and analyzed using SMS' proprietary MS-Excel macro interface software."}
{"smiles": "CCCCC1(CCCC)CS(=O)(=O)c2ccc(N(C)C)cc2[C@@H](c2ccc(OCc3ccc(C[N+]45CCN(CC4)CC5)cc3)cc2)[C@H]1O.[Cl-]", "note": "[Form I, (4R,5R)-1-((4-(4-(3,3-dibutyl-7-(dimethylamino)-2,3,4,5-tetrahydro-4-hydroxy-1,1-dioxido-1-benzithiepin-5-yl)phenoxy)methyl)phenyl)methyl-4-aza-1-azoniabicyclo[2.2.2]octane chloride]", "values": [{"measurement": "Desorptoin % Weight Change", "setting": "0.45 % RH at 25° C.", "value": 0.057, "unit": "%"}, {"measurement": "Sorption % Weight Change", "setting": "0.45 % RH at 25° C.", "value": 0.057, "unit": "%"}, {"measurement": "Desorptoin % Weight Change", "setting": "9.2 % RH at 25° C.", "value": 0.997, "unit": "%"}, {"measurement": "Sorption % Weight Change", "setting": "9.2 % RH at 25° C.", "value": 0.9575, "unit": "%"}, {"measurement": "Desorptoin % Weight Change", "setting": "20.05 % RH at 25° C.", "value": 2.1025, "unit": "%"}, {"measurement": "Sorption % Weight Change", "setting": "20.05 % RH at 25° C.", "value": 2.016, "unit": "%"}, {"measurement": "Desorptoin % Weight Change", "setting": "29.75 % RH at 25° C.", "value": 3.599, "unit": "%"}, {"measurement": "Sorption % Weight Change", "setting": "29.75 % RH at 25° C.", "value": 3.4105, "unit": "%"}, {"measurement": "Desorptoin % Weight Change", "setting": "39.4 % RH at 25° C.", "value": 4.743, "unit": "%"}, {"measurement": "Sorption % Weight Change", "setting": "39.4 % RH at 25° C.", "value": 4.282, "unit": "%"}, {"measurement": "Desorptoin % Weight Change", "setting": "49.55 % RH at 25° C.", "value": 5.321, "unit": "%"}, {"measurement": "Sorption % Weight Change", "setting": "49.55 % RH at 25° C.", "value": 4.928, "unit": "%"}, {"measurement": "Desorptoin % Weight Change", "setting": "59.4 % RH at 25° C.", "value": 5.726, "unit": "%"}, {"measurement": "Sorption % Weight Change", "setting": "59.4 % RH at 25° C.", "value": 5.356, "unit": "%"}, {"measurement": "Desorptoin % Weight Change", "setting": "69.05 % RH at 25° C.", "value": 6.054, "unit": "%"}, {"measurement": "Sorption % Weight Change", "setting": "69.05 % RH at 25° C.", "value": 5.706, "unit": "%"}, {"measurement": "Desorptoin % Weight Change", "setting": "78.8 % RH at 25° C.", "value": 6.357, "unit": "%"}, {"measurement": "Sorption % Weight Change", "setting": "78.8 % RH at 25° C.", "value": 6.109, "unit": "%"}, {"measurement": "Desorptoin % Weight Change", "setting": "88.5 % RH at 25° C.", "value": 6.734, "unit": "%"}, {"measurement": "Sorption % Weight Change", "setting": "88.5 % RH at 25° C.", "value": 6.734, "unit": "%"}]}
{"smiles": "CCCCC1(CCCC)CS(=O)(=O)c2ccc(N(C)C)cc2[C@@H](c2ccc(OCc3ccc(C[N+]45CCN(CC4)CC5)cc3)cc2)[C@H]1O.[Cl-]", "note": "[Form II, (4R,5R)-1-((4-(4-(3,3-dibutyl-7-(dimethylamino)-2,3,4,5-tetrahydro-4-hydroxy-1,1-dioxido-1-benzithiepin-5-yl)phenoxy)methyl)phenyl)methyl-4-aza-1-azoniabicyclo[2.2.2]octane chloride]", "values": [{"measurement": "Desorptoin % Weight Change", "setting": "1.3 % RH at 25° C.", "value": "−0.02695", "unit": "%"}, {"measurement": "Sorption % Weight Change", "setting": "1.3 % RH at 25° C.", "value": "−0.02695", "unit": "%"}, {"measurement": "Desorptoin % Weight Change", "setting": "9.35 % RH at 25° C.", "value": 0.04235, "unit": "%"}, {"measurement": "Sorption % Weight Change", "setting": "9.35 % RH at 25° C.", "value": 0.04715, "unit": "%"}, {"measurement": "Desorptoin % Weight Change", "setting": "20.25 % RH at 25° C.", "value": 0.09715, "unit": "%"}, {"measurement": "Sorption % Weight Change", "setting": "20.25 % RH at 25° C.", "value": 0.1058, "unit": "%"}, {"measurement": "Desorptoin % Weight Change", "setting": "29.75 % RH at 25° C.", "value": 0.1444, "unit": "%"}, {"measurement": "Sorption % Weight Change", "setting": "29.75 % RH at 25° C.", "value": 0.1376, "unit": "%"}, {"measurement": "Desorptoin % Weight Change", "setting": "39.55 % RH at 25° C.", "value": 0.1866, "unit": "%"}, {"measurement": "Sorption % Weight Change", "setting": "39.55 % RH at 25° C.", "value": 0.1809, "unit": "%"}, {"measurement": "Desorptoin % Weight Change", "setting": "49.7 % RH at 25° C.", "value": 0.2636, "unit": "%"}, {"measurement": "Sorption % Weight Change", "setting": "49.7 % RH at 25° C.", "value": 0.2386, "unit": "%"}, {"measurement": "Desorptoin % Weight Change", "setting": "59.5 % RH at 25° C.", "value": 0.331, "unit": "%"}, {"measurement": "Sorption % Weight Change", "setting": "59.5 % RH at 25° C.", "value": 0.304, "unit": "%"}, {"measurement": "Desorptoin % Weight Change", "setting": "69.1 % RH at 25° C.", "value": 0.3983, "unit": "%"}, {"measurement": "Sorption % Weight Change", "setting": "69.1 % RH at 25° C.", "value": 0.3945, "unit": "%"}, {"measurement": "Desorptoin % Weight Change", "setting": "78.65 % RH at 25° C.", "value": 0.4849, "unit": "%"}, {"measurement": "Sorption % Weight Change", "setting": "78.65 % RH at 25° C.", "value": 0.4695, "unit": "%"}, {"measurement": "Desorptoin % Weight Change", "setting": "88.5 % RH at 25° C.", "value": 0.6446, "unit": "%"}, {"measurement": "Sorption % Weight Change", "setting": "88.5 % RH at 25° C.", "value": 0.6446, "unit": "%"}, {"measurement": "weight gain of dry sample (of its own weight) when equilibrated under humid air", "setting": "dry sample equilibrated under 80% relative humidity (RH) air at 25° C.", "value": "less than 1%"}, {"measurement": "hygroscopicity", "setting": "dry sample, 80% RH air at 25° C.", "value": "essentially nonhygroscopic"}]}
